Data published in patent publication US5696138A, “Urea derivatives and their use” (priority 1993, dated 1997).

Experiments:
[1] = molecular target: BK currents (Bos taurus, UniProt Q28204); test: Whole cell recordings (patch-clamp, voltage clamp) of membrane currents in calf aortic smooth muscle cells; assay type: cell-based; conditions: 1-10 μM in the bath
Method: (§1) All experiments were performed with patch-clamp technique (Hamill et al., Pflugers Arch. 391, 85-100 (1981)). The ion composition of the internal solution was (in mM) 140 KCl, 1 CaCl2, 1 MgCl2, 2 EGTA, 10 HEPES and the external solution contained 140 NaCl, 4 KCl, 2 CaCl2, 1 MgCl2 and 10 HEPES.
The membrane currents of calf aortic smooth muscle cells were determined in whole-cell recordings using voltage clamp mode (HEKA EPC-9 patch-clamp amplifier).

[2] = tested on: BK channel; test: Single channel experiments, inside-out patches of human coronary artery smooth muscle cell membrane; assay type: cell-based; conditions: 1-10 μM
Method: as §1
In inside-out patches of human coronary artery smooth muscle cell membrane single BK channels were activated by for example N-(3-(trifluoromethyl)phenyl)-N'-(2-hydroxy-5-chlorophenyl) urea (1-10 μM).

[3] = molecular target: BK channel (Bos taurus, UniProt Q28204); test: Single channel experiments, cultured bovine aortic smooth muscle cells; assay type: cell-based
BK channel (Bos taurus, UniProt Q28204), sequence (Q28204 whole entry): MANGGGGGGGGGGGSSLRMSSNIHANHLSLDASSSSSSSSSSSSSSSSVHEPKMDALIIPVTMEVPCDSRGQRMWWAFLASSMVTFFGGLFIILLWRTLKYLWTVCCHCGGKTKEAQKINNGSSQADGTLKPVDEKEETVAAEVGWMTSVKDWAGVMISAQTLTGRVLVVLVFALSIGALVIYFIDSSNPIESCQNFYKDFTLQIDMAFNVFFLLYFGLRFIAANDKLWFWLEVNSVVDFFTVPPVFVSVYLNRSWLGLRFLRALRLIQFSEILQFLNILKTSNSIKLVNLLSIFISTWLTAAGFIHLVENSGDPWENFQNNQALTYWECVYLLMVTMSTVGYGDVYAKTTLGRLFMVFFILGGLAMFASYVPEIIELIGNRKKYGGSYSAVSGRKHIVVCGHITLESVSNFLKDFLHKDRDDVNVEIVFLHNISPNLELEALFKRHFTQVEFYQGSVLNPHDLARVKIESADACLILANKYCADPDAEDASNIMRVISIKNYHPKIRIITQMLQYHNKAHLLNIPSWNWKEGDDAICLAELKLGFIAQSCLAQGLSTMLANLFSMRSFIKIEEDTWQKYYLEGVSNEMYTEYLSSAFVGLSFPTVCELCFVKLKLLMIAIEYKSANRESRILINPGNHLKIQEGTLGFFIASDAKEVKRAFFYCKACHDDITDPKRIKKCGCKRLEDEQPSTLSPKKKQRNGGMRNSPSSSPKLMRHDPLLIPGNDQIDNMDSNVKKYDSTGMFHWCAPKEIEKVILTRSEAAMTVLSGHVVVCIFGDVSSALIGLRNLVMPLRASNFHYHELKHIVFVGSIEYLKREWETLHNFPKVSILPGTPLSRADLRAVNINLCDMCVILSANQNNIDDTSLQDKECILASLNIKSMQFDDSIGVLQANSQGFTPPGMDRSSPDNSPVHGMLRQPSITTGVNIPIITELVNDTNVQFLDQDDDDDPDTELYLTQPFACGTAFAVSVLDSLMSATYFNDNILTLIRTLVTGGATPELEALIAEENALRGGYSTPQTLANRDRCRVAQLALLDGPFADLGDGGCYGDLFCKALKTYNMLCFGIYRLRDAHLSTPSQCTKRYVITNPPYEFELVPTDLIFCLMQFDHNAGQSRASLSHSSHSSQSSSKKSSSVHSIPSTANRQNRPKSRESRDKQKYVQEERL
BK channel (Bos taurus, UniProt Q28204), sequence (Q28067 whole entry partner): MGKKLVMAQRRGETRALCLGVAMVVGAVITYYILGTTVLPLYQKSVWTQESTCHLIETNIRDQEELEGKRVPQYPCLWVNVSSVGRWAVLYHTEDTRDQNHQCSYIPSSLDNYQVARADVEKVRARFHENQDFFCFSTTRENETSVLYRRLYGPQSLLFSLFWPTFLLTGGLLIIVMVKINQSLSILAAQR
Method: as §1
The BK channels were also activated by N-(3-(trifluoromethyl)phenyl)-N'-(2-hydroxy-5-chlorophenyl) urea and N-phenyl-N'-(2-hydroxy-5-chlorophenyl) urea at concentrations equal or greater than 3 μM and by N-(3-(trifluoromethyl)phenyl)-N'-(2-hydroxy-5-(trifluoromethyl)phenyl) urea at concentrations greater than 10 μM.

[4] = tested on: acetylcholine-contracted guinea-pig ileum; test: Guinea-pig ileum experiment (relaxation of acetylcholine-contracted ileum); conditions: 3-30 μM; ileum precontracted with acetylcholine 0.015-5.0 μM
Method: The compound, N-(3-(trifluoromethyl)phenyl)-N'-(2-hydroxy-5-chlorophenyl) urea, has been studied for its ability to relax acetylcholine-contracted guinea-pig ileum. The smooth muscle cells of the ileum express many BK channels and the model predicts relaxing effects on the gastrointestinal or urogenital tracts.
Method: Ileum from guinea-pigs are isolated and mounted in an isometric contraction chamber. It is bathed in a physiological Krebs solution at 98° F. The ileum is precontracted with increasing concentrations of acetylcholine (0.015-5.0 μM). The contractions are reversed by including the compound in the bathing solution.

[5] = tested on: cocaine induced hypermotility; test: Cocaine motility test; assay type: in vivo; conditions: 10-30 mg/kg i.p. 15 min before 25 mg/kg cocaine; female NMRI mice; motility over 120 min
Method: The compound, N-(3-(trifluoromethyl)phenyl)-N'-(2-hydroxy-5-chlorophenyl) urea, has been studied in the cocaine motility test. Cocaine induces hypermotility due to an inhibition of dopamine reuptake. The test is recognized as a test predicting anti-psychotic activity.
Method: Two female NMRI mice (20-25 g) are placed in each test box (normal transparent plexiglas cage, w, l, h=21×39×19 cm) in the test room for at least 16 hours with food and water ad libitum before the test in order for the animals to habituate to the situation. The test compound is administered i.p. 15 min before saline or 25 mg/kg cocaine jip. to 32 mice (16 boxes) per dose. Food and water are withdrawn, and the motility is measured as the number of interrupted infrared photo-beams (8 per box placed 5 cm apart and 3 cm over the bottom of the cage) for the next 120 min.

BK currents, sequence (Q28067 whole entry): as the sequence (Q28067 whole entry partner) above
BK currents, sequence (Q28204 whole entry): as the sequence (Q28204 whole entry) above

| Compound | activation of BK currents (blockable by charybdotoxin) [1] | increase of the outward current [1] | shift of the activation curve towards negative membrane potentials [1] | activation of single BK channels [2] | increase of the open probability of the BK channel [2] | concentrations at which the BK channels were activated [3] | activation of the BK channel ([3]; 1 μM) | relaxation of acetylcholine-contracted guinea-pig ileum [4] | antagonism of cocaine induced hypermotility [5] |
| --- | --- | --- | --- | --- | --- | --- | --- | --- | --- |
| O=C(Nc1cccc(C(F)(F)F)c1)Nc1cc(Cl)ccc1O [N-(3-(trifluoromethyl)phenyl)-N'-(2-hydroxy-5-chlorophenyl) urea] | specifically activated BK currents | up to 10 times | more than -60 mV | activated | several hundred | ≥ 3 µM | significantly activated | relaxes the ileum in a dose-dependent way | antagonizes cocaine induced hypermotility |
| O=C(Nc1ccccc1)Nc1cc(Cl)ccc1O [N-phenyl-N'-(2-hydroxy-5-chlorophenyl) urea] | – | – | – | – | – | ≥ 3 µM | – | – | – |
| O=C(Nc1cccc(C(F)(F)F)c1)Nc1cc(C(F)(F)F)ccc1O [N-(3-(trifluoromethyl)phenyl)-N'-(2-hydroxy-5-(trifluoromethyl)phenyl) urea] | – | – | – | – | – | greater than 10 μM | – | – | – |
